Source: US10189809B2, “SGC stimulators” (Ironwood Pharmaceuticals, Inc., priority 2010, dated 2019)
Where two headings read alike, the source gives them in different places.

Experiments:
Thoracic aortic rings [1] = experiment: Thoracic aortic rings assay (Example 19a; IBMX as 100% inhibition); conditions: compound at 10 μM, rat thoracic aortic rings contracted with 100 ng/mL phenylephrine; for inhibition at 10 µM: read-out: Percent Relaxation at 10 μM
Method: Thoracic aortic rings were dissected from anesthetized (isoflurane) male Sprague-Dawley rats weighing 275-299 g. Tissues were immediately transferred to ice-cold Krebs-Henseleit solution, which had been aerated with 95% O2 and 5% CO2 for 30 minutes. Following removal of connective tissue, aortic sections were cut into 4 rings (˜2 mm each) and suspended on 2 L-shaped hooks, with one hook fixed at the bottom of the tissue bath (Schuler Organ Bath, Harvard Apparatus) and the other connected to a force transducer (F30 Force Transducer, Harvard Apparatus). Baths contained Krebs Henseleit solution (10 mL) heated to 37° C. and aerated with 95% O2 and 5% CO2. Rings were brought to an initial tension of 0.3-0.5 g and gradually raised to a resting tension of 1.0 g over 60 minutes. Rings were rinsed with Krebs Henseleit solution (heated to 37° C. and aerated with 95% O2 and 5% CO2) at 15 minute intervals until a stable baseline was obtained. Rings were considered to be stable after a resting tension of 1.0 g was maintained (for approximately 10 minutes) without need for adjustment. Rings were then contracted with 100 ng/mL phenylephrine by adding 100 uL of a 10 μg/mL phenylephrine stock solution. Tissues achieving a stable contraction were then treated in a cumulative, dose dependent manner with test compounds prepared in dimethylsulfoxide (DMSO). In some cases, tissues were rinsed three times over a 5 minute period with Krebs-Heinseleit's solution (heated to 37° C. and aerated with 95% O2 and 5% CO2), allowed to stabilize at baseline, and then used for characterization of other test articles or DMSO effects. All data were collected using the HSE-ACAD software provided by Harvard Apparatus. […] EC50 values were calculated from concentration-response curves generated with GraphPad Prism Software.

[2] = biological target: T1, Human soluble guanylate cyclase enzyme (hsGC) (Homo sapiens (Human), UniProt Q02108+Q02153); experiment: Purified human sGC enzyme activity assay; assay type: biochemical; conditions: for sGC Enzyme (specific activity at 10 μM) / sGC Enzyme (fold increase at 10 μM without SNP): 10 μM compound; for sGC Enzyme (specific activity at 30 μM) / sGC Enzyme (fold increase at 30 μM without SNP) / sGC Enzyme (fold increase at 30 μM): 30 μM compound; for sGC Enzyme (fold increase at 30 μM): without the addition of SNP
Method in brief: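 Purified human sGC (5 ng) incubated 30 min at 37° C with compound at 10 or 30 μM final in pH 8.0 Tris with 300 μM GTP, 2 mM MgCl2, 2 mM DTT and 1 mM IBMX, then stopped with cold methanol. cGMP quantified against a standard curve. Specific activity (nmol cGMP/mg sGC/min) expressed as fold-change over DMSO control.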

[3] = biological target: T2, soluble guanylate cyclase (sGC) (Homo sapiens (Human), UniProt Q02108+Q02153); experiment: sGC-HEK-cGMP assay run with SNP incubation (HEK WC assay); assay type: cell-based; conditions: for HEK WC Assay (fold increase at 30 μM in the presence of 10 μM SNP): compound at 30 μM; for EC50: read-out: HEK WC Assay in the presence of 10 uM SNP EC50, in the presence of 10 uM SNP
Method in brief: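 HEK293 cells with endogenous sGC were pretreated with 0.5 mM IBMX for 15 min at 37 °C, then exposed to test compound plus sodium nitroprusside for 10 min at 37 °C.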

Thoracic aortic rings [4] = experiment: Alternative thoracic aortic rings assay (Example 19b; resting tension as 100% inhibition); set-up: species or system rat; conditions: for inhibition at 1 µM: read-out: Percent Relaxation at 1 μM; for inhibition at 3 µM: read-out: Percent Relaxation at 3 μM; for EC50: read-out: Aortic Ring EC50
Method in brief: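 Aortic rings (~2 mm) from male Sprague-Dawley rats (275-299 g) held at 1.0 g resting tension in Krebs-Henseleit at 37 °C under 95% O2/5% CO2, then precontracted with 100 ng/mL phenylephrine. Compounds in DMSO added cumulatively; relaxation recorded by force transducer and EC50 taken from concentration-response curves.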

[5] = biological target: T1, Human soluble guanylate cyclase enzyme (hsGC); experiment: Purified human sGC enzyme synergy assay in the presence of 1 μM sodium nitroprusside (SNP); assay type: biochemical; conditions: for sGC Enzyme (fold increase at 30 μM with SNP): 30 μM compound; for sGC Enzyme (fold increase at 10 μM with SNP): 10 μM compound
Method in brief: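 Purified human sGC (5 ng) incubated 30 min at 37 °C with compounds at 10 or 30 μM, 1 μM sodium nitroprusside, 300 μM GTP and 1 mM IBMX in Tris pH 8.0 with MgCl2/DTT. cGMP quantified against a standard curve, and specific activity expressed as fold-change over DMSO control.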

[6] = biological target: T2, soluble guanylate cyclase (sGC); experiment: sGC-HEK-cGMP assay run in the absence of SNP (HEK WC assay); assay type: cell-based; conditions: for HEK WC Assay (fold increase at 30 μM in the absence of SNP) / HEK WC Assay (fold increase at 30 μM): compound at 30 μM; for HEK WC Assay (fold increase at 10 μM): compound at 10 μM; for HEK WC Assay (fold increase at 10 μM) / HEK WC Assay (fold increase at 30 μM): no SNP, increase in the sGC receptor activity
Method in brief: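 HEK293 cells with endogenous sGC, preincubated 15 min at 37° C with 0.5 mM IBMX, then exposed to test compound 10 min at 37° C without SNP. Cells lysed in 0.1 M HCl; cGMP quantified by LC/MS against a standard curve. EC50 from concentration-response curves.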

[7] = read-out: HEK WC Assay (% Emax at 10 uM/with 10 uM SNP)
[8] = read-out: HEK WC Assay (% Emax at 30 uM/with 10 uM SNP)
[9] = read-out: HEK WC Assay (% Emax at 10 μM with 10 uM SNP)
[10] = read-out: HEK WC Assay (% Emax at 10 μM/with 10 uM SNP)
[11] = read-out: HEK WC Assay (% Emax at 30 μM with 10 uM SNP)
[12] = read-out: HEK WC Assay (% Emax at 30 μM/with 10 uM SNP)

T1 sequence (Q02153 whole entry): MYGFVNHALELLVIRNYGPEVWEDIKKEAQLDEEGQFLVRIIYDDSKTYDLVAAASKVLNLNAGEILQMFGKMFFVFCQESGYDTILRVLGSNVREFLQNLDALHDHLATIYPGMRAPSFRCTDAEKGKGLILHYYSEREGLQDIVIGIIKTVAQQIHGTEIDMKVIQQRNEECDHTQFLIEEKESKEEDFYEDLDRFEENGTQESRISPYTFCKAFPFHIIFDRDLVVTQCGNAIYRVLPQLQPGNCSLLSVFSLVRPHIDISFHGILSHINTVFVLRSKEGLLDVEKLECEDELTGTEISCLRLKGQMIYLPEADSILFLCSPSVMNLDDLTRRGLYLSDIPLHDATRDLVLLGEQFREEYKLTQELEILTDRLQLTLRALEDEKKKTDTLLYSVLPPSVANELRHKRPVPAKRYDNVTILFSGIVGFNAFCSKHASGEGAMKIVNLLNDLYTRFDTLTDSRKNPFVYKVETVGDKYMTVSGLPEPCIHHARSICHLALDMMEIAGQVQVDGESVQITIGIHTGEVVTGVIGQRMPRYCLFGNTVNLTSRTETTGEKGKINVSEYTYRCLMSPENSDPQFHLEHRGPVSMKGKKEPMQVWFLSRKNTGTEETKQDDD
T1 sequence (Q02108 whole entry): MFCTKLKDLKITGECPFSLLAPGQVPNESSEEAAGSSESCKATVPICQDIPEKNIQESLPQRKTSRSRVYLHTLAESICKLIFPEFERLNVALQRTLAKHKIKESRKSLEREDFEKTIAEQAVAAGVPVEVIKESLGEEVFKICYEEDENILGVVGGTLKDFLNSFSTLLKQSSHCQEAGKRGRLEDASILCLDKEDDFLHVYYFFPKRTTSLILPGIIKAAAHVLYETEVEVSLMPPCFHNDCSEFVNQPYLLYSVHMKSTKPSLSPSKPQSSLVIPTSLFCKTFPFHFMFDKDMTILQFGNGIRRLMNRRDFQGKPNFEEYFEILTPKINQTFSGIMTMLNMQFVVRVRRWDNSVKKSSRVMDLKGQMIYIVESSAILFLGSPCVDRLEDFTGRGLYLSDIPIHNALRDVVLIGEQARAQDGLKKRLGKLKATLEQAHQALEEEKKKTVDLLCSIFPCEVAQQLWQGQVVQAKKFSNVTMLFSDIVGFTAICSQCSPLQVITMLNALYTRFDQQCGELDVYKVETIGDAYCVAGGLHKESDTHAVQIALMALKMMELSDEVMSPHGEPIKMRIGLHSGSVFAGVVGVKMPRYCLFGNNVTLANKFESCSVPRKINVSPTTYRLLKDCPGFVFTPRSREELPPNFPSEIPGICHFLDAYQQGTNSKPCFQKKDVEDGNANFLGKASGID
T2 sequence (Q02153 whole entry): as the sequence (Q02153 whole entry) above
T2 sequence (Q02108 whole entry): as the sequence (Q02108 whole entry) above

| Compound | sGC Enzyme (specific activity at 10 μM) [2] | sGC Enzyme (fold increase at 10 μM without SNP) [2] | sGC Enzyme (specific activity at 30 μM) [2] | sGC Enzyme (fold increase at 30 μM without SNP) [2] | Emax at 10 µM [3, 7] | Emax at 30 µM [3, 8] | inhibition at 10 µM (Thoracic aortic rings [1]) | also measured |
| --- | --- | --- | --- | --- | --- | --- | --- | --- |
| Nc1nc(-c2nn(Cc3ccccc3F)c3ncccc23)ncc1C1CC1 [Reference Compound, BAY 41-2272, reference compound] |  |  |  |  |  |  |  | Percent Relaxation at 10 μM (Thoracic aortic rings [1]): 100% |
| Fc1ccccc1Cn1nc(-c2ccccn2)cc1-c1nccs1 [Compound I-27] | C (C = 100 to <200) | B (B = 2 to <5 fold increase) | D (D = 200 to <500) | B (B = 2 to <5 fold increase) | 20 to 40% | 40 to 60% | 77.2% |  |
| Nc1nc(-c2cc(-c3ccon3)n(Cc3ccccc3F)n2)ncc1C1(O)CC1 [Compound I-119, I-(4-amino-2-(1-(2-fluorobenzyl)-5-(isoxazol-3-yl)-1H-pyrazol-3-yl)pyrimidin-5-yl)cyclopropanol] |  |  |  |  |  |  |  | sGC Enzyme (fold increase at 30 μM) [2]: B (B = 2 to <5 fold increase); Percent Relaxation at 1 μM (Thoracic aortic rings [4]; Table 10B): C (C = 20 to <40%); Percent Relaxation at 3 μM (Thoracic aortic rings [4]; Table 10B): E (E = 60 or <80%); Percent Relaxation at 10 μM (Thoracic aortic rings [4]; 10 μM, Table 10B): G (G = 100 to <120%); inhibition at 1 µM (Thoracic aortic rings [4]; Rattus norvegicus, Table 10A): 20 to 40%; inhibition at 3 µM (Thoracic aortic rings [4]; Rattus norvegicus, Table 10A): 60 to 80%; inhibition at 10 µM (Thoracic aortic rings [4]; Rattus norvegicus, 10 μM, Table 10A, read-out: Percent Relaxation at 10 μM): 100 to 120%; EC50 (Thoracic aortic rings [4]; Rattus norvegicus, Table 10A): < 2000 nM; EC50 (Thoracic aortic rings [4]; Table 10B): < 2000 nM; HEK WC Assay (fold increase at 30 μM in the presence of 10 μM SNP) [3]: E (E = 10 to <20 fold increase); Emax [3, 9]: 100 to 120%; Emax at 10 µM [3, 10]: > 120%; Emax [3, 11]: 100 to 120%; Emax at 30 µM [3, 12]: > 120%; EC50 [3]: < 20000 nM; sGC Enzyme (fold increase at 30 μM with SNP) ([5]; with the addition of SNP): D (D = 10 to <30 fold increase); HEK WC Assay (fold increase at 30 μM in the absence of SNP) [6]: C (C = 2 to <5 fold increase) |
| Fc1ccccc1Cn1nc(-c2ccccn2)cc1-c1ccccn1 [Compound I-1] | B (B = 50 to <100) | B (B = 2 to <5 fold increase) | C (C = 100 to <200) | C (C = 5 to <10 fold increase) | 0 to 10% | 10 to 20% | 53.7% | HEK WC Assay (fold increase at 10 μM) [6]: A (A = no increase to <1 fold increase); HEK WC Assay (fold increase at 30 μM) [6]: C (C = 2 to <5 fold increase) |
| Nc1nc(-c2cc(-c3ccon3)n(Cc3ccccc3F)n2)ncc1NC(=O)c1ccccc1 [Compound I-126] |  |  |  |  |  |  |  | sGC Enzyme (fold increase at 30 μM) [2]: D (D = 10 to <30 fold increase); Percent Relaxation at 1 μM (Thoracic aortic rings [4]; Table 10B): F (F = 80 to <100%); Percent Relaxation at 3 μM (Thoracic aortic rings [4]; Table 10B): G (G = 100 to <120%); inhibition at 1 µM (Thoracic aortic rings [4]; Rattus norvegicus, Table 10A): 80 to 100%; inhibition at 3 µM (Thoracic aortic rings [4]; Rattus norvegicus, Table 10A): 100 to 120%; EC50 (Thoracic aortic rings [4]; Rattus norvegicus, Table 10A): < 2000 nM; EC50 (Thoracic aortic rings [4]; Table 10B): < 2000 nM; HEK WC Assay (fold increase at 30 μM in the presence of 10 μM SNP) [3]: F (F = 20 to <30 fold increase); Emax [3, 9]: 100 to 120%; Emax at 10 µM [3, 10]: > 120%; Emax [3, 11]: 100 to 120%; Emax at 30 µM [3, 12]: 100 to 120%; EC50 [3]: < 20000 nM; sGC Enzyme (fold increase at 30 μM with SNP) ([5]; with the addition of SNP): D (D = 10 to <30 fold increase); HEK WC Assay (fold increase at 30 μM in the absence of SNP) [6]: E (E = 10 to <20 fold increase) |
| Nc1ccnc(-c2cc(-c3ccsc3)n(Cc3ccccc3F)n2)n1 [Compound I-49] | D (D = 200 to <500) | C (C = 5 to <10 fold increase) | E (E = 500 to <1000) | D (D = equal or >10 fold increase) | 20 to 40% | 40 to 60% | 106% |  |

Second part, led by results:

| sGC Enzyme (specific activity at 10 μM) [2] | sGC Enzyme (fold increase at 10 μM without SNP) [2] | sGC Enzyme (specific activity at 30 μM) [2] | sGC Enzyme (fold increase at 30 μM without SNP) [2] | Emax at 10 µM [3, 7] | Emax at 30 µM [3, 8] | Compound | inhibition at 10 µM (Thoracic aortic rings [1]) | also measured |
| --- | --- | --- | --- | --- | --- | --- | --- | --- |
| B (B = 50 to <100) | B (B = 2 to <5 fold increase) | C (C = 100 to <200) | C (C = 5 to <10 fold increase) | 20 to 40% | 20 to 40% | Fc1ccccc1Cn1nc(-c2ncccn2)cc1-c1cccs1 [Compound I-66] | 103% | sGC Enzyme (fold increase at 10 μM with SNP) ([5]; with 1 μM SNP): C (C = 5 to <10 fold increase); sGC Enzyme (fold increase at 30 μM with SNP) ([5]; with 1 μM SNP): D (D = equal or >10 fold increase) |
| B (B = 50 to <100) | B (B = 2 to <5 fold increase) | A (A = 0 to <50) | B (B = 2 to <5 fold increase) | 10 to 20% | 20 to 40% | Fc1ccccc1Cn1nc(-c2ncccn2)cc1-c1ccccc1 [Compound I-2] | 101% | HEK WC Assay (fold increase at 10 μM) [6]: A (A = no increase to <1 fold increase); HEK WC Assay (fold increase at 30 μM) [6]: B (B = 1 to <2 fold increase) |
| D (D = 200 to <500) | B (B = 2 to <5 fold increase) | D (D = 200 to <500) | C (C = 5 to <10 fold increase) | 20 to 40% | 40 to 60% | Fc1ccccc1Cn1nc(-c2ccccn2)cc1-c1ccsc1 [Compound I-26] | 85.3% | sGC Enzyme (fold increase at 10 μM with SNP) ([5]; with 1 μM SNP): C (C = 5 to <10 fold increase); sGC Enzyme (fold increase at 30 μM with SNP) ([5]; with 1 μM SNP): D (D = equal or >10 fold increase) |
